According to US10246451B2, “Propionic acid derivatives and methods of use thereof” (Aviara Pharmaceuticals, Inc., priority 2017, dated 2019):

Columns and labels:
α4β1 integrin = α4β1 integrin (Homo sapiens, UniProt P05556+P13612); experiment: a4b1 IC50 (inhibition of α4β1 integrin; no method described); format: binding
α4β7 integrin = target: T1, α4β7 integrin (Homo sapiens, UniProt P13612+P26010); experiment: a4b7 IC50 (inhibition of α4β7 integrin; no method described); format: binding
T1 sequence (P13612 34-1032): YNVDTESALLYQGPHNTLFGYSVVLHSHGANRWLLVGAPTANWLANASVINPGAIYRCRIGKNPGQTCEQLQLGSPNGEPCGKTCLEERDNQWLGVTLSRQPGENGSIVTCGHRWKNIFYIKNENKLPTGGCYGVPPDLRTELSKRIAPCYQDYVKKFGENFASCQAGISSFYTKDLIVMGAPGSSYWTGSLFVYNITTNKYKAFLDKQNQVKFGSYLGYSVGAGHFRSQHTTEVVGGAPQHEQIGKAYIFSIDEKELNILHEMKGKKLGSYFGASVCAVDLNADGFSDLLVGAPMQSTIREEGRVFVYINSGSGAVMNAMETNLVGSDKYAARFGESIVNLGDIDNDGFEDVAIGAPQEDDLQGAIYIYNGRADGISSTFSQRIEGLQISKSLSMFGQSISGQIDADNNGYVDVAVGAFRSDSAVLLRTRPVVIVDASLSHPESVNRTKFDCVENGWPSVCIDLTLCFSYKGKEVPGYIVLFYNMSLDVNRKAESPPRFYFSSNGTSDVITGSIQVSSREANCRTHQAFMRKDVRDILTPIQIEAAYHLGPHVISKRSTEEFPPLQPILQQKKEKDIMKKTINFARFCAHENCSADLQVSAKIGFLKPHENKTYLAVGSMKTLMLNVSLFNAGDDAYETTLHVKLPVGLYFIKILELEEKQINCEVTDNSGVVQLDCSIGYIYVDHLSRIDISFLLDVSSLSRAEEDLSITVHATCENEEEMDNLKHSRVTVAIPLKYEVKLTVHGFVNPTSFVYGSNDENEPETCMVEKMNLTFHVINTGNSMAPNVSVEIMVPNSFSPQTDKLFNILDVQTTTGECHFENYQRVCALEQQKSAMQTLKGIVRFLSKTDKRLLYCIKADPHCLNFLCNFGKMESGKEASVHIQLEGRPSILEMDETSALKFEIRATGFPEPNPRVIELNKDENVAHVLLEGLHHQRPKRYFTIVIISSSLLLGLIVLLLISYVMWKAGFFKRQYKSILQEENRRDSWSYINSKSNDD
T1 sequence (P26010 20-798): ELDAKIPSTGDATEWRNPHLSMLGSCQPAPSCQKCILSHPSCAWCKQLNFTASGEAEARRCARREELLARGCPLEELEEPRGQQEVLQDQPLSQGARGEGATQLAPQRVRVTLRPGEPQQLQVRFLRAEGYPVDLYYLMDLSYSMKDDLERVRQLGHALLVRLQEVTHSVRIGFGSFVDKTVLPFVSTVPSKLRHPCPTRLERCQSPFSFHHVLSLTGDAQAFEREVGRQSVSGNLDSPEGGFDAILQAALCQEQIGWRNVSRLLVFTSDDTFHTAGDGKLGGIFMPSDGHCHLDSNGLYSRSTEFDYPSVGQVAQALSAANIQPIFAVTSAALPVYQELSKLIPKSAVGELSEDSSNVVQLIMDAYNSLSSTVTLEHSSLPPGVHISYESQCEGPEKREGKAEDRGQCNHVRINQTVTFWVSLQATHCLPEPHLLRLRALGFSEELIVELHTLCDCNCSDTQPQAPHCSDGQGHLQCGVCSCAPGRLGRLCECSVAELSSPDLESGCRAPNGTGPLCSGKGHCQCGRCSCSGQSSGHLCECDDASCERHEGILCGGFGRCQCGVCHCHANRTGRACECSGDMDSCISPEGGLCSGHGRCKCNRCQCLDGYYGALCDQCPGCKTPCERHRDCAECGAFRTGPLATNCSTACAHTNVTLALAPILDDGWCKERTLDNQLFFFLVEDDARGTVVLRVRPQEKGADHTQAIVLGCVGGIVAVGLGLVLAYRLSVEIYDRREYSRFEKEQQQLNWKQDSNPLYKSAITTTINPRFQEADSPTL

Sequence of α4β1 integrin (P05556 21-798, one chain of several): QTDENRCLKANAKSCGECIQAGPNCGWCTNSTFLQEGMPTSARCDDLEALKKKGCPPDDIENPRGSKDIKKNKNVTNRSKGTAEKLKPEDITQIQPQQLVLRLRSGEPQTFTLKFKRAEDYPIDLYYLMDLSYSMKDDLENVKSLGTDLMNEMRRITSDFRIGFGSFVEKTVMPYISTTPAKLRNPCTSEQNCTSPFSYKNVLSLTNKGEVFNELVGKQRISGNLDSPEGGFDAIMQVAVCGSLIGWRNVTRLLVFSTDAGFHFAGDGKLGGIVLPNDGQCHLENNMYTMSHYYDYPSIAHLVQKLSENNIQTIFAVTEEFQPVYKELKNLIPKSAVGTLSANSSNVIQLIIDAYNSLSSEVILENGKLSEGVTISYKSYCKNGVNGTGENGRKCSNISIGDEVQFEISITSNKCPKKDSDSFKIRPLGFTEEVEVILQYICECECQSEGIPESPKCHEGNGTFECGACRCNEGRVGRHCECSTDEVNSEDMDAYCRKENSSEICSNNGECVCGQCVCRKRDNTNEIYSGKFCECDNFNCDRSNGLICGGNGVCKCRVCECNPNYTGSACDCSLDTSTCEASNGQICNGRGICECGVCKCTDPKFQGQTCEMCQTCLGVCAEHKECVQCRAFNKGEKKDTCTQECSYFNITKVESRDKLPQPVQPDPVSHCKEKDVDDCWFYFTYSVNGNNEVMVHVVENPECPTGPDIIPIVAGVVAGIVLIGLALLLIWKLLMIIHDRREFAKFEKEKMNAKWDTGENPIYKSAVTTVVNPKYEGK

| SMILES | IC50 (α4β1 integrin) [nM] | IC50 (α4β7 integrin) [nM] |
| --- | --- | --- |
| Cc1ccccc1C(F)(F)c1cccc([C@H](CC(=O)O)NC(=O)Nc2c(O)ccn(C)c2=O)c1 [Compound 3-65, sodium (S)-3-(3-(difluoro(o-tolyl)methyl)phenyl)-3-(3-(1-methyl-4-oxido-2-oxo-1,2-dihydropyridin-3-yl)ureido)propanoate] | < 20 | < 200 |
| Cn1ccc(O)c(NC(=O)N[C@@H](CC(=O)O)c2cccc(Oc3ccccc3)c2)c1=O [Compound 3-71, sodium (S)-3-(3-(1-methyl-4-oxido-2-oxo-1,2-dihydropyridin-3-yl)ureido)-3-(3-phenoxyphenyl)propanoate] | < 200 | < 20 |
| Cn1ccc(O)c(NC(=O)N[C@@H](CC(=O)O)c2cccc(Oc3ccc(F)cc3F)c2)c1=O [Compound 3-86, sodium(S)-3-(3-(2,4-difluorophenoxy)phenyl)-3-(3-(1-methyl-4-oxido-2-oxo-1,2-dihydropyridin-3-yl)ureido)propanoate] | < 20 | – |
| Cc1cccc(C)c1Oc1cccc([C@H](CC(=O)O)NC(=O)Nc2c(O)ccn(C)c2=O)c1 [Compound 3-87, sodium(S)-3-(3-(2,6-dimethylphenoxy)phenyl)-3-(3-(1-methyl-4-oxido-2-oxo-1,2-dihydropyridin-3-yl)ureido)propanoate] | < 20 | – |
| Cn1ccc(O)c(NC(=O)N[C@@H](CC(=O)O)c2cccc(Cc3ccccc3C(F)(F)F)c2)c1=O [Compound 3-88, sodium (S)-3-(3-(1-methyl-4-oxido-2-oxo-1,2-dihydropyridin-3-yl)ureido)-3-(3-(2-(trifluoromethyl)benzyl)phenyl)propanoate] | < 20 | – |
| Cn1ccc(O)c(NC(=O)N[C@@H](CC(=O)O)c2cccc(Cc3ccc(C(F)(F)F)cc3)c2)c1=O [Compound 3-90, sodium (S)-3-(3-(1-methyl-4-oxido-2-oxo-1,2-dihydropyridin-3-yl)ureido)-3-(3-(4-(trifluoromethyl)benzyl)phenyl)propanoate] | < 20 | – |
| Cn1ccc(O)c(NC(=O)N[C@@H](CC(=O)O)c2ccc(Cc3ccccc3)s2)c1=O [Compound 3-96, sodium (S)-3-(5-benzylthiophen-2-yl)-3-(3-(1-methyl-4-oxido-2-oxo-1,2-dihydro-pyridin-3-yl)ureido)propanoate] | < 20 | – |

The next lines start with the values.

| IC50 (α4β1 integrin) [nM] | IC50 (α4β7 integrin) [nM] | SMILES |
| --- | --- | --- |
| < 20 | – | Cn1ccc(O)c(NC(=O)N[C@@H](CC(=O)O)c2cccc(Cc3cccc(C(F)(F)F)c3)c2)c1=O [Compound 3-89, sodium (S)-3-(3-(1-methyl-4-oxido-2-oxo-1,2-dihydropyridin-3-yl)ureido)-3-(3-(3-(trifluoromethyl)benzyl)phenyl)propanoate] |
| < 20 | – | Cn1ccc(O)c(NC(=O)N[C@@H](CC(=O)O)c2cccc(Cc3ccccc3OC(F)F)c2)c1=O [Compound 3-91, sodium(S)-3-(3-(2-(difluoromethoxy)benzyl)phenyl)-3-(3-(1-methyl-4-oxido-2-oxo-1,2-dihydropyridin-3-yl)ureido) propanoate] |
| < 20 | – | COc1ccccc1Cc1cccc([C@H](CC(=O)O)NC(=O)Nc2c(O)ccn(C)c2=O)c1 [Compound 3-92] |
| < 20 | – | Cn1ccc(O)c(NC(=O)N[C@@H](CC(=O)O)c2cccc(Cc3ccccc3F)c2)c1=O [Compound 3-93, sodium (S)-3-(3-(2-fluorobenzyl)phenyl)-3-(3-(1-methyl-4-oxido-2-oxo-1,2-dihydro-pyridin-3-yl)ureido)propanoate] |
| < 20 | – | Cc1cccc(C)c1Cc1cccc([C@H](CC(=O)O)NC(=O)Nc2c(O)ccn(C)c2=O)c1 [Compound 3-94, sodium (S)-3-(3-(2,6-dimethylbenzyl)phenyl)-3-(3-(1-methyl-4-oxido-2-oxo-1,2-dihydropyridin-3-yl)ureido)propanoate] |
| < 20 | – | Cc1ccccc1Cc1ccc([C@H](CC(=O)O)NC(=O)Nc2c(O)ccn(C)c2=O)s1 [Compound 3-95, sodium (S)-3-(3-(1-methyl-4-oxido-2-oxo-1,2-dihydropyridin-3-yl)ureido)-3-(5-(2-methylbenzyl)thiophen-2-yl)propanoate] |
